The values that follow come from US10472341B2, “Bicyclic tetrahydrothiazepine derivatives useful for the treatment of neoplastic and/or infectious diseases” (APEIRON BIOLOGICS AG, priority 2015, dated 2019).

Counter-ions that a name gives are not always drawn. Like-named read-outs stand apart in the source and are kept apart here. A value given as a limit tells only on which side of the number the result lay.

In this experiment the test system is aCD3/aCD28-stimulated human PBMCs. Put plainly: Cytokine production in aCD3/aCD28 stimulated human PBMCs. It is filed as cell-based. Particulars: PBMC, 18 h. On the procedure: In order to determine the immune modulatory effect of compounds of compounds of the present invention in human PBMCs, compounds were assessed in the following assay set-up:
Buffy coats were obtained from a local hospital, diluted 3 fold with PBS and layered onto an isotonic Ficoll separating solution d=1.077 g/mL in 50 mL centrifuge tubes. The tubes were centrifuged at 914 g for 25 min at room temperature with the brakes off. The PBMC layer was removed and washed twice with ice-cold PBS. Erythrocytes were lysed by addition of ddH2O and cells were resuspended in X-Vivo15 (Lonza).
1e6 cells/mL were stimulated with soluble anti CD3/CD28 antibodies (1 μg/mL both, clones OKT3 and 28.2) in the presence of described compounds. Cells were incubated for 18 h at 37° C., 5% CO2. Assay plates were centrifuged at 400 g for 5 min and supernatants harvested. Cytokine concentration in tissue culture supernatants were determined with MSD or HTRF kits (MSD and Cisbio), according to manufacturer's instructions.

Where [1] appears, read: enhancement of IFN-γ production, read-out: Activity Class IFN-γ.
Where [2] appears, read: enhancement of IL-2 production, read-out: Activity Class IL-2.

Turning to `COCCNC(=O)c1ccc2c(c1)N(Cc1ccc(Cl)cc1)C(=O)[C@@H](N)CS2` [Example 20, (3R)-3-amino-5-[(4-chlorophenyl)methyl]-N-(2-methoxyethyl)-4-oxo-2,3,4,5-tetrahydro-1,5-benzothiazepine-7-carboxamide hydrochloride], the EC50 under setting [1] was in the range of 1.58 to 5.01 µM and the EC50 under setting [2] is above 5.01 µM.
The matching figures for `CC(C)NC(=O)c1ccc2c(c1)N(Cc1ccc(Cl)cc1)C(=O)[C@@H](N)CS2` [Example 61, (3R)-3-amino-5-[(4-chlorophenyl)methyl]-4-oxo-N-(propan-2-yl)-2,3,4,5-tetrahydro-1,5-benzothiazepine-7-carboxamide hydrochloride]: 1.58 to 5.01 µM and above 5.01 µM.
On to `CN(C)c1cc2c(cc1C(=O)NCc1ccccc1)N(Cc1ccc(Cl)cc1)C(=O)[C@@H](N)CS2(=O)=O` [Example 116, (3R)-3-amino-N-benzyl-5-[(4-chlorophenyl)methyl]-8-(dimethylamino)-1,1,4-trioxo-2,3,4,5-tetrahydro-1λ^6,5-benzothiazepine-7-carboxamide hydrochloride], for which the EC50 was 1.58 to 5.01 µM under setting [1] and above 5.01 µM under setting [2].
Turning to `COc1ccc(CN2C(=O)[C@@H](N)CS(=O)(=O)c3cc(F)c(C(=O)NC4CC4(F)F)cc32)cc1C(F)(F)F` (stereo partly drawn) [Example 117, (3R)-3-amino-N-(2,2-difluorocyclopropyl)-8-fluoro-5-{[4-methoxy-3-(trifluoromethyl)phenyl]methyl}-1,1,4-trioxo-2,3,4,5-tetrahydro-1λ^6,5-benzothiazepine-7-carboxamide hydrochloride], the EC50 under setting [1] was below 1.58 µM and the EC50 under setting [2] was above 5.01 µM.
The matching figures for `C[C@@H]1[C@H](N)C(=O)N(Cc2ccc(Cl)cc2)c2cc(C(=O)NCCCC(F)(F)F)c(F)cc2S1(=O)=O` [Example 118, (2R,3R)-3-amino-5-[(4-chlorophenyl)methyl]-8-fluoro-2-methyl-1,1,4-trioxo-N-(4,4,4-trifluorobutyl)-2,3,4,5-tetrahydro-1λ^6,5-benzothiazepine-7-carboxamide hydrochloride]: below 1.58 µM and 1.58 to 5.01 µM.
On to `Cc1nc(-c2ccc(CN3C(=O)[C@@H](N)CS(=O)(=O)c4ccc(C(=O)NCCCC(F)(F)F)cc43)cc2)no1` [Example 119, (3R)-3-amino-5-{[4-(5-methyl-1,2,4-oxadiazol-3-yl)phenyl]methyl}-1,1,4-trioxo-N-(4,4,4-trifluorobutyl)-2,3,4,5-tetrahydro-1λ^6,5-benzothiazepine-7-carboxamide hydrochloride], for which the EC50 under setting [1] is 1.58 to 5.01 µM and the EC50 under setting [2] was above 5.01 µM.
For `COCCNC(=O)c1cc2c(cc1F)S(=O)(=O)C[C@H](N)C(=O)N2Cc1ccc(Cl)cc1` [Example 120, (3R)-3-amino-5-[(4-chlorophenyl)methyl]-8-fluoro-N-(2-methoxyethyl)-1,1,4-trioxo-2,3,4,5-tetrahydro-1λ^6,5-benzothiazepine-7-carboxamide hydrochloride], in that order: above 5.01 µM and above 5.01 µM.
Consider `Cc1nc(-c2ccc(CN3C(=O)[C@@H](N)CS(=O)(=O)c4ccc(C(=O)NC5CC5(F)F)cc43)cc2)no1` (stereo partly drawn) [Example 121, (3R)-3-amino-N-(2,2-difluorocyclopropyl)-5-{[4-(5-methyl-1,2,4-oxadiazol-3-yl)phenyl]methyl}-1,1,4-trioxo-2,3,4,5-tetrahydro-1λ^6,5-benzothiazepine-7-carboxamide hydrochloride], for which the EC50 by setting is: under setting [1], above 5.01 µM; under setting [2], above 5.01 µM.
On to `N[C@H]1CS(=O)(=O)c2cc(F)c(C(=O)NCc3ccc(F)cc3)cc2N(Cc2nnc(C3CC3)s2)C1=O` [Example 138, (3R)-3-amino-5-[(5-cyclopropyl-1,3,4-thiadiazol-2-yl)methyl]-8-fluoro-N-[(4-fluorophenyl)methyl]-1,1,4-trioxo-2,3,4,5-tetrahydro-1λ^6,5-benzothiazepine-7-carboxamide hydrochloride], for which the EC50 reads like this: under setting [1], 1.58 to 5.01 µM; under setting [2], above 5.01 µM.
Take `N[C@H]1CS(=O)(=O)c2cc(F)c(C(=O)NC3CCOCC3)cc2N(Cc2ccc(Cl)cc2)C1=O` [Example 144, (3R)-3-amino-5-[(4-chlorophenyl)methyl]-8-fluoro-N-(oxan-4-yl)-1,1,4-trioxo-2,3,4,5-tetrahydro-1λ^6,5-benzothiazepine-7-carboxamide]: the EC50 by setting is: under setting [1], 1.58 to 5.01 µM; under setting [2], above 5.01 µM.
Turning to `N[C@H]1CS(=O)(=O)c2ccc(C(=O)N[C@@H]3C[C@@H]3F)cc2N(Cc2ccc(Cl)cc2)C1=O` [Example 147, (3R)-3-amino-5-[(4-chlorophenyl)methyl]-N-[(1R,2S)-2-fluorocyclopropyl]-1,1,4-trioxo-2,3,4,5-tetrahydro-1λ^6,5-benzothiazepine-7-carboxamide], the EC50 under setting [1] is above 5.01 µM and the EC50 under setting [2] was above 5.01 µM.
On to `N[C@H]1CS(=O)(=O)c2ccc(C(=O)NC3CC(F)(F)C3)cc2N(Cc2ccccc2F)C1=O` [Example 148, (3R)-3-amino-N-(3,3-difluorocyclobutyl)-5-[(2-fluorophenyl)methyl]-1,1,4-trioxo-2,3,4,5-tetrahydro-1λ^6,5-benzothiazepine-7-carboxamide], for which the EC50 is, setting by setting: under setting [1], 1.58 to 5.01 µM; under setting [2], above 5.01 µM.
In the case of `COc1cccc(CN2C(=O)[C@@H](N)CS(=O)(=O)c3ccc(C(=O)NC4CC(F)(F)C4)cc32)c1` [Example 149, (3R)-3-amino-N-(3,3-difluorocyclobutyl)-5-[(3-methoxyphenyl)methyl]-1,1,4-trioxo-2,3,4,5-tetrahydro-1λ^6,5-benzothiazepine-7-carboxamide], the EC50 reads like this: under setting [1], above 5.01 µM; under setting [2], above 5.01 µM.
For the compound `N[C@H]1CS(=O)(=O)c2ccc(C(=O)N[C@@H]3CCOC3)cc2N(Cc2ccc(Cl)cc2)C1=O` [Example 156, (3R)-3-amino-5-[(4-chlorophenyl)methyl]-1,1,4-trioxo-N-[(3R)-oxolan-3-yl]-2,3,4,5-tetrahydro-1λ^6,5-benzothiazepine-7-carboxamide], the EC50 was above 5.01 µM under setting [1] and above 5.01 µM under setting [2].
For the compound `N[C@H]1CS(=O)(=O)c2ccc(C(=O)NCC3CCOC3)cc2N(Cc2ccc(Cl)cc2)C1=O` (stereo partly drawn) [Example 157, (3R)-3-amino-5-[(4-chlorophenyl)methyl]-1,1,4-trioxo-N-[(oxolan-3-yl)methyl]-2,3,4,5-tetrahydro-1λ^6,5-benzothiazepine-7-carboxamide], the EC50 is, setting by setting: under setting [1], above 5.01 µM; under setting [2], above 5.01 µM.
Consider `COc1ccc(CN2C(=O)[C@@H](N)CS(=O)(=O)c3ccc(C(=O)N[C@@H]4CC4(F)F)cc32)cc1` [Example 161, (3R)-3-amino-N-[(1R)-2,2-difluorocyclopropyl]-5-[(4-methoxyphenyl)methyl]-1,1,4-trioxo-2,3,4,5-tetrahydro-1λ^6,5-benzothiazepine-7-carboxamide], for which the EC50 is above 5.01 µM under setting [1] and above 5.01 µM under setting [2].
With `N[C@H]1CS(=O)(=O)c2ccc(C(=O)NCCCC(F)(F)F)cc2N(Cc2ccccc2)C1=O` [Example 162, (3R)-3-amino-5-benzyl-1,1,4-trioxo-N-(4,4,4-trifluorobutyl)-2,3,4,5-tetrahydro-1λ^6,5-benzothiazepine-7-carboxamide], the EC50 reads like this: under setting [1], above 5.01 µM; under setting [2], above 5.01 µM.
For the compound `N[C@H]1CS(=O)(=O)c2ccc(C(=O)NCC3CCOCC3)cc2N(Cc2ccc(OC(F)F)cc2)C1=O` [Example 164, (3R)-3-amino-5-{[4-(difluoromethoxy)phenyl]methyl}-N-[(oxan-4-yl)methyl]-1,1,4-trioxo-2,3,4,5-tetrahydro-1λ^6,5-benzothiazepine-7-carboxamide], the EC50 is, setting by setting: under setting [1], above 5.01 µM; under setting [2], above 5.01 µM.
As for `C[C@@H](NC(=O)c1ccc2c(c1)N(Cc1ccc(Cl)cc1)C(=O)[C@@H](N)CS2(=O)=O)C1CCOCC1` [Example 166, (3R)-3-amino-5-[(4-chlorophenyl)methyl]-N-[(1R)-1-(oxan-4-yl)ethyl]-1,1,4-trioxo-2,3,4,5-tetrahydro-1λ^6,5-benzothiazepine-7-carboxamide], the EC50 was above 5.01 µM under setting [1] and above 5.01 µM under setting [2].
Regarding `N[C@H]1CS(=O)(=O)c2ccc(C(=O)N[C@@H]3CC3(F)F)cc2N(Cc2ccccc2)C1=O` [Example 167, (3R)-3-amino-5-benzyl-N-[(1R)-2,2-difluorocyclopropyl]-1,1,4-trioxo-2,3,4,5-tetrahydro-1λ^6,5-benzothiazepine-7-carboxamide], the EC50 is above 5.01 µM under setting [1] and above 5.01 µM under setting [2].
As to `Cc1ccc(CNC(=O)c2ccc3c(c2)N(Cc2ccc(Cl)cc2)C(=O)[C@@H](N)CS3(=O)=O)cn1` [Example 168, (3R)-3-amino-5-[(4-chlorophenyl)methyl]-N-[(6-methylpyridin-3-yl)methyl]-1,1,4-trioxo-2,3,4,5-tetrahydro-1λ^6,5-benzothiazepine-7-carboxamide], the EC50 by setting is: under setting [1], 1.58 to 5.01 µM; under setting [2], above 5.01 µM.
Consider `N#Cc1ccc(CN2C(=O)[C@@H](N)CS(=O)(=O)c3cc(F)c(C(=O)NCc4ccc(F)cc4)cc32)cc1` [Example 170, (3R)-3-amino-5-[(4-cyanophenyl)methyl]-8-fluoro-N-[(4-fluorophenyl)methyl]-1,1,4-trioxo-2,3,4,5-tetrahydro-1λ^6,5-benzothiazepine-7-carboxamide], for which the EC50 was below 1.58 µM under setting [1] and below 1.58 µM under setting [2].
